Measurements from patent US20260224486A1, “DIANHYDROHEXITOL BASED IONIZABLE LIPIDS FOR NUCLEIC ACID DELIVERY” (SANOFI PASTEUR INC., priority 2023, published 2026).

Columns and labels:
BALB/cJ mice = assay: Delivery of hEPO mRNA by intramuscular administration of LNPs; serum hEPO by ELISA; format: in vivo, Mouse; conditions: for hEPO 24 Hr (ng/ml) Mean: mouse serum 24 hours post single IM injection of 0.1 μg hEPO mRNA LNP
In short: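 Female BALB/cJ mice, 6-8 weeks, given a single IM injection of 0.1 μg hEPO mRNA LNPs into right gastrocnemius under light isoflurane. Serum taken at 6 and 24 h post dose and terminally by cardiac puncture; hEPO measured by ELISA ("shaker" protocol), samples diluted 1:40 to 1:100.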

[1] = mRNA encapsulation efficiency of lipid nanoparticles (RiboGreen assay); format: physicochemical; conditions: hEPO mRNA LNP, Process A, Cationic Lipid:DMG-PEG2000:Cholesterol:DOPE 40:1.5:28.5:30 mol %, N/P 4
From the text: In embodiments, the lipid nanoparticle encapsulates a nucleic acid, optionally an mRNA encoding a peptide or protein. In embodiments, the lipid nanoparticle encapsulates an mRNA encoding a peptide or protein, optionally for use in a vaccine. In embodiments, the peptide is an antigen. As used herein, the phrase “encapsulation percentage” refers to the fraction of therapeutic agent (e.g. mRNA) that is effectively encapsulated within a liposomal-based vehicle (e.g. a lipid nanoparticle) relative to the initial fraction of therapeutic agent present in the lipid phase. In embodiments, the lipid nanoparticles have an encapsulation percentage for mRNA of at least 50%. In embodiments, the lipid nanoparticles have an encapsulation percentage for mRNA of at least 55%. In embodiments, the lipid nanoparticles have an encapsulation percentage for mRNA of at least 60%. In embodiments, the lipid nanoparticles have an encapsulation percentage for mRNA of at least 65%. In embodiments, the lipid nanoparticles have an encapsulation percentage for mRNA of at least 70%. In embodiments, the lipid nanoparticles have an encapsulation percentage for mRNA of at least 75%. In embodiments, the lipid nanoparticles have an encapsulation percentage for mRNA of at least 80%. In embodiments, the lipid nanoparticles have an encapsulation percentage for mRNA of at least 85%. In embodiments, the lipid nanoparticles have an encapsulation percentage for mRNA of at least 90%. In embodiments, the lipid nanoparticles have an encapsulation percentage for mRNA of at least 95%. In embodiments, the encapsulation percentage is calculated by performing the Ribogreen assay (Invitrogen) with and without the presence of 0.1% Triton-X 100.
(§1) Lipid nanoparticle formulations of Table 1 were prepared by Process A. All of the lipid nanoparticle formulations comprised hEPO mRNA and the different lipids (Cationic Lipid: DMG-PEG2000: Cholesterol: DOPE) in mol % ratios of 40:1.5:28.5:30 (Cationic Lipid: DMG-PEG2000: Cholesterol: DOPE).
The RiboGreen Assay is a fluorescence-based method for the determination of mRNA concentration (Total and Free) and % encapsulation using Quant-iT™ RiboGreen® RNA reagent in mRNA containing lipid nanoparticles.
• To each of the standards (Blank, mRNA-1, mRNA-2. mRNA-3, mRNA-4, mRNA-5) and Samples (free mRNA and total mRNA), add 1.0 mL of 200-fold Ribogreen Reagent Solution and gently mix by inversion. This is a 2× Dilution. • Add 200 μL of each standard and sample in triplicate using the reverse pipetting technique in a 96-well Costar Black with Clear Background Plate. Ensure no bubbles are present in the plate before the fluorescence reading. • Read the fluorescence signal using the below instrument parameters: • Read Type: Fluorescence, Bottom Read • Excitation: 485 nm; Cut-off: 515 nm; Emission: 530 nm • Plate Type: 96-well Costar Black with Clear Background
The average fluorescence from each calibration standard is plotted against the concentration to generate a linear calibration curve using the MS Excel software. The coefficient of determination (R^2) of calibration curve must be R^2>0.99.
[formula] • Where, • Y=average fluorescence value • m: slope • x: concentration (pg/mL) • c: y-intercept • Using the linear equation, calculate the concentration of free and total mRNA concentration in the test sample by replacing the y value in the equation with the average fluorescence value of each respective sample • Once the concentration is determined, the actual concentration in the sample can be back-calculated by multiplying the concentration in the test sample with the dilution factor (DF) as follows:
[formula] [formula] • Concentration of encapsulated mRNA can be determined by subtracting the concentration of free mRNA from the total mRNA. • % Encapsulation can then be calculated by taking the ratio of encapsulated mRNA over total mRNA and multiplying the result with 100.

[2] = tested on: A/Tasmania/503/2020 (H3N2) virus; assay: Influenza titer: HAI assay on sera of mice immunized IM with Modified Tasmania H3 mRNA-lipid nanoparticles; conditions: Balb/c mice, 0.4 ug per mouse Modified Tasmania H3 mRNA-LNP IM on day 0 and day 21
[3] = Lipid nanoparticle size and polydispersity index by dynamic light scattering (Malvern Zetasizer); format: physicochemical; conditions: hEPO mRNA LNP, Process A, Cationic Lipid:DMG-PEG2000:Cholesterol:DOPE 40:1.5:28.5:30 mol %, N/P 4
From the text: The lipid nanoparticles in the examples of the present invention were formulated using Process A of WO 2018/089801 (see, e.g., Example 1 and FIG. 1 of WO 2018/089801). Process A (“A”) relates to a conventional method of encapsulating mRNA by mixing mRNA with a mixture of lipids, without first pre-forming the lipids into lipid nanoparticles. In an exemplary process, an ethanolic solution of a mixture of lipids (cationic lipid, phosphatidylethanolamine, cholesterol, and polyethylene glycol-lipid) at a fixed lipid to mRNA ratio were combined with an aqueous buffered solution of target mRNA at an acidic pH under controlled conditions to yield a suspension of uniform LNPs. After ultrafiltration and diafiltration into a suitable diluent system, the resulting nanoparticle suspensions were diluted to final concentration, filtered, and stored frozen at −80° C. until use.
as §1
The Polydispersity Index (Pdl) of lipid nanoparticles can be determined by diluting the formulation in 10% trehalose at about 0.1 mg/ml mRNA concentration and then measuring the size on Malvern zetasizer. The lipid nanoparticle size can be obtained with Malvern Zetasizer Nano-ZS.
Dynamic light scattering (DLS) measurements were performed using a Malvern Instruments Zetasizer with a backscattering detector angle of 173° and a 4-mW, 633-nm He—Ne laser (Worcestershire, UK). The samples were analyzed by diluting in 10% Trehalose and measuring the size and Poly dispersity Index (PDI) in an optical grade polystyrene cuvette.

[4] = Table 2, isosorbide-derived lipids, mouse serum 6 hours post single IM injection of 0.1 μg hEPO mRNA LNP
[5] = Table 2, isosorbide-derived lipids
[6] = Table 4, further lipids, mouse serum 6 hours post IM injection of hEPO mRNA LNP as in example 3

## CCCCCCCCCCC(O)CN(CCCC(=O)O[C@H]1CO[C@H]2[C@@H]1OC[C@H]2OC(=O)CCCN(CC(O)CCCCCCCCCC)CC(O)CCCCCCCCCC)CC(O)CCCCCCCCCC (stereo in doubt) [Compound 3]
BALB/cJ mice; Table 3, isomannide-derived lipids, mouse serum 6 hours post single IM injection of 0.1 μg hEPO mRNA LNP
  hEPO 6 Hr (ng/mL) Mean: 37.4 ng/mL
BALB/cJ mice; Table 3, isomannide-derived lipids
  hEPO 24 Hr (ng/ml) Mean: 18.9 ng/mL
[1]
  Encapsulation efficiency (EE) %: 86%
[2]
  HAI GMT: 320
[3]
  Polydispersity Index (PDI): 0.11
  Size (nm): 95 nm

## CCCCCCCCCCC(O)CN(CCCC(=O)O[C@H]1CO[C@H]2[C@@H]1OC[C@H]2OC(=O)CCCN(CC(O)CCCCCCCCCC)CC(O)CCCCCCCCCC)CC(O)CCCCCCCCCC (stereo partly shown) [Compound 24]
BALB/cJ mice; [4]
  hEPO 6 Hr (ng/ml) Mean: 30.2 ng/mL
BALB/cJ mice; [5]
  hEPO 24 Hr (ng/ml) Mean: 19.4 ng/mL
[1]
  Encapsulation efficiency (EE) %: 83%
[2]
  HAI GMT: 190
[3]
  Polydispersity Index (PDI): 0.11
  Size (nm): 88 nm

## CCCCCCCCCCC(O)CN(CCCOC(=O)O[C@H]1CO[C@H]2[C@@H]1OC[C@H]2OC(=O)OCCCN(CC(O)CCCCCCCCCC)CC(O)CCCCCCCCCC)CC(O)CCCCCCCCCC (stereo partly shown) [Compound 40]
BALB/cJ mice; [4]
  hEPO 6 Hr (ng/ml) Mean: 11.9 ng/mL
BALB/cJ mice; [5]
  hEPO 24 Hr (ng/ml) Mean: 7 ng/mL
[1]
  Encapsulation efficiency (EE) %: 66%
[3]
  Polydispersity Index (PDI): 0.11
  Size (nm): 84 nm

## CCCCCCCCC(O)CN(CCCC(=O)N[C@H]1CO[C@H]2[C@@H]1OC[C@@H]2NC(=O)CCCN(CC(O)CCCCCCCC)CC(O)CCCCCCCC)CC(O)CCCCCCCC (stereo partly shown) [Compound 51]
BALB/cJ mice; [6]
  hEPO 6 Hr (ng/ml) Mean: 47.6 ng/mL
[1]
  Encapsulation efficiency (EE) %: 81%
[3]
  Polydispersity Index (PDI): 0.12
  Size (nm): 71 nm

## CCCCCCCCCCC(O)CN(CCCC(=O)N[C@H]1CO[C@H]2[C@@H]1OC[C@@H]2NC(=O)CCCN(CC(O)CCCCCCCCCC)CC(O)CCCCCCCCCC)CC(O)CCCCCCCCCC (stereo partly shown) [Compound 52]
BALB/cJ mice; [6]
  hEPO 6 Hr (ng/ml) Mean: 72.7 ng/mL
[1]
  Encapsulation efficiency (EE) %: 95%
[3]
  Polydispersity Index (PDI): 0.14
  Size (nm): 74 nm

## CCCCCCCCCCCCC(O)CN(CCCOC(=O)N[C@H]1CO[C@H]2[C@@H]1OC[C@@H]2NC(=O)OCCCN(CC(O)CCCCCCCCCCCC)CC(O)CCCCCCCCCCCC)CC(O)CCCCCCCCCCCC (stereo partly shown) [Compound 53]
BALB/cJ mice; [6]
  hEPO 6 Hr (ng/ml) Mean: 72.0 ng/mL
[1]
  Encapsulation efficiency (EE) %: 96%
[3]
  Polydispersity Index (PDI): 0.2
  Size (nm): 97 nm

## CCCCCCCCCCC(O)CN(CCCSC(=O)N[C@H]1CO[C@H]2[C@@H]1OC[C@@H]2NC(=O)SCCCN(CC(O)CCCCCCCCCC)CC(O)CCCCCCCCCC)CC(O)CCCCCCCCCC (stereo partly shown) [Compound 54]
BALB/cJ mice; [6]
  hEPO 6 Hr (ng/ml) Mean: 12.0 ng/mL
[1]
  Encapsulation efficiency (EE) %: 87%
[3]
  Polydispersity Index (PDI): 1.6
  Size (nm): 79 nm

## CCCCCCCCCCCCC(O)CN(CCCC(=O)N[C@H]1CO[C@H]2[C@@H]1OC[C@@H]2NC(=O)CCCN(CC(O)CCCCCCCCCCCC)CC(O)CCCCCCCCCCCC)CC(O)CCCCCCCCCCCC (stereo partly shown) [Compound 55]
BALB/cJ mice; [6]
  hEPO 6 Hr (ng/ml) Mean: 30.9 ng/mL
[1]
  Encapsulation efficiency (EE) %: 99%
[3]
  Polydispersity Index (PDI): 0.15
  Size (nm): 101 nm
